Experimental data reported in US7829711B2, “Crystalline materials of 1-(4-benzoyl-piperazin-1-yl)-2-[4-methoxy-7-(3-methyl-[1,2,4]triazol-1-yl)-1H-pyrrolo[2,3-C]pyridine-3-yl]-ethane-1,2-dione” (Bristol-Myers Squibb Company, priority 2004, dated 2010).
Converted amounts (≈) assume the structure as drawn.

Columns and labels:
Type in all cases: physicochemical
[1] = Aqueous solubility of Form P-1; conditions: aqueous medium
[2] = Solvent mediated polymorphic transformation (suspension of P-1 crystals in solvents); conditions: room temperature or elevated temperature
[3] = pKa of Form P-1
[4] = Hygroscopicity of Form P-1

COc1cnc(-n2cnc(C)n2)c2[nH]cc(C(=O)C(=O)N3CCN(C(=O)c4ccccc4)CC3)c12 [Form P-1, 1-(4-benzoyl-piperazin-1-yl)-2-[4-methoxy-7-(3-methyl-[1,2,4]triazol-1-yl)-1H-pyrrolo[2,3-c]pyridin-3-yl]-ethane-1,2-dione]
solubility ([1]; 25 °C, pH 5.7, aqueous buffer): 2.7 µg/mL (≈ 5.7 µM) | solubility ([1]; aqueous buffer, pH 8.6, 25° C.): 14 µg/mL (≈ 29.6 µM) | solubility ([1]; simulated gastric fluid, pH 1.4, 25° C.): 12 µg/mL (≈ 25.3 µM) | Phase conversion on suspension in various solvents [2]: did not show any phase conversion | pKa [3]: 8.4 | Hygroscopicity: maximum water uptake ([4]; at 90% RH): RH and 3.2% maximum water uptake at 90% RH) | Hygroscopicity ([4]; result in words): Low hygroscopicity | Hygroscopicity: weight gain ([4]; under 30-60% RH): 1%
